This experiment addresses T1, human poly-histidine tagged KSP motor domain (KSP(367H)) (Homo sapiens, UniProt P52732).
T1 construct: were used to amplify the motor domain and the neck linker region; made in house; host or cells: E. coli BL21 (DE3), pRSETa
T1 sequence (P52732 18-359 limits assumed): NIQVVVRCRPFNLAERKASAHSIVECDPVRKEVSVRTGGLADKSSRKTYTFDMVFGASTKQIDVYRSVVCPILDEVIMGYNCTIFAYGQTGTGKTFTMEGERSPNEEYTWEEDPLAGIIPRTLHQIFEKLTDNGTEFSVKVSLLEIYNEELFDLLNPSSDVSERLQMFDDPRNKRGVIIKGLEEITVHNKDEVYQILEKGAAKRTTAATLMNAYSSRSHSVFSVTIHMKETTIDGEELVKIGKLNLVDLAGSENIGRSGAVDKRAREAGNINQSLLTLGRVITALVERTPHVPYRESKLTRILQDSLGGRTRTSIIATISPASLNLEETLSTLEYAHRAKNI
As to the kind of experiment: Kinesin ATPase In Vitro Assay. It counts as biochemical. The following applies: for IC50: microtubules, 1 mM ATP, 23° C., quinaldine red/ammonium molybdate phosphate readout. The source says:
I. Kinesin ATPase In Vitro Assay
Cloning and expression of human poly-histidine tagged KSP motor domain (KSP(367H)): Plasmids for the expression of the human KSP motor domain construct were cloned by PCR using a pBluescript full length human KSP construct (Blangy et al., Cell, vol. 83, pp 1159-1169, 1995) as a template. The N-terminal primer 5′-[…] (SEQ. ID. NO.: 1) and the C-terminal primer 5′-[…] […] (SEQ. ID. NO.: 2)
were used to amplify the motor domain and the neck linker region. The PCR products were digested with AseI and XhoI, ligated into the NdeI/XhoI digestion product of pRSETa (Invitrogen) and transformed into E. coli BL21 (DE3).
Cells were grown at 37° C. to an OD600 of 0.5. After cooling the culture to room temperature expression of KSP was induced with 100 μM IPTG and incubation was continued overnight. Cells were pelleted by centrifugation and washed once with ice-cold PBS. Pellets were flash-frozen and stored −80° C.
Protein Purification: Cell pellets were thawed on ice and resuspended in lysis buffer (50 mM K-HEPES, pH 8.0, 250 mM KCl, 0.1% Tween, 10 mM imidazole, 0.5 mM Mg-ATP, 1 mM PMSF, 2 mM benzimidine, 1× complete protease inhibitor cocktail (Roche)). Cell suspensions were incubated with 1 mg/ml lysozyme and 5 mM β-mercaptoethanol on ice for 10 minutes, followed by sonication (3×30 sec). All subsequent procedures were performed at 4° C. Lysates were centrifuged at 40,000×g for 40 minutes. Supernatants were diluted and loaded onto an SP Sepharose column (Pharmacia, 5 ml cartridge) in buffer A (50 mM K-HEPES, pH 6.8, 1 mM MgCl2, 1 mM EGTA, 10 μM Mg-ATP, 1 mM DTT) and eluted with a 0 to 750 mM KCl gradient in buffer A. Fractions containing KSP were pooled and incubated with Ni-NTA resin (Qiagen) for one hour. The resin was washed three times with buffer B (Lysis buffer minus PMSF and protease inhibitor cocktail), followed by three 15-minute incubations and washes with buffer B. Finally, the resin was incubated and washed for 15 minutes three times with buffer C (same as buffer B except for pH 6.0) and poured into a column. KSP was eluted with elution buffer (identical to buffer B except for 150 mM KCl and 250 mM imidazole). KSP-containing fractions were pooled, made 10% in sucrose, and stored at −80° C.
Microtubules are prepared from tubulin isolated from bovine brain. Purified tubulin (>97% MAP-free) at 1 mg/ml is polymerized at 37° C. in the presence of 10 μM paclitaxel, 1 mM DTT, 1 mM GTP in BRB80 buffer (80 mM K-PIPES, 1 mM EGTA, 1 mM MgCl2 at pH 6.8). The resulting microtubules are separated from non-polymerized tubulin by ultracentrifugation and removal of the supernatant. The pellet, containing the microtubules, is gently resuspended in 10 μM paclitaxel, 1 mM DTT, 50 μg/ml ampicillin, and 5 μg/ml chloramphenicol in BRB80.
The kinesin motor domain is incubated with microtubules, 1 mM ATP (1:1 MgCl2: Na-ATP), and compound at 23° C. in buffer containing 80 mM K-HEPES (pH 7.0), 1 mM EGTA, 1 mM DTT, 1 mM MgCl2, and 50 mM KCl. The reaction is terminated by a 2-10 fold dilution with a final buffer composition of 80 mM HEPES and 50 mM EDTA. Free phosphate from the ATP hydrolysis reaction is measured via a quinaldine red/ammonium molybdate assay by adding 150 μl of quench C buffer containing a 2:1 ratio of quench A:quench B. Quench A contains 0.1 mg/ml quinaldine red and 0.14% polyvinyl alcohol; quench B contains 12.3 mM ammonium molybdate tetrahydrate in 1.15 M sulfuric acid. The reaction is incubated for 10 minutes at 23° C., and the absorbance of the phosphomolybdate complex is measured at 540 nm.

Usually IC50 stands for the concentration at which inhibition is half-maximal. Read a low IC50 as higher potency.

Where only a bound is given, the exact number is not on record here.

For `CC(=O)N1N=C2c3cc(F)ccc3OCC2C1(C)c1ccccc1` (mixture of isomers) [Compound 2-2, 2-acetyl-8-fluoro-3-methyl-3-phenyl-2,3,3a,4-tetrahydrochromeno[4,3-c]pyrazole], the concentration for half-maximal inhibition (IC50) was at most 30 µM. Same read-out and setting: as for `CC(=O)N1N=C2c3cc(F)ccc3OCC2C1(CCC1OCCCO1)c1ccccc1` (mixture of isomers) [Compound 5-4, 2-acetyl-3-[2-(1,3-dioxan-2-yl)ethyl]-8-fluoro-3-phenyl-2,3,3a,4-tetrahydrochromeno[4,3-c]pyrazole], the figure is at most 30 µM; as for `CC(=O)N1CCN(CCC[C@@]2(c3ccccc3)[C@H]3COc4ccc(F)cc4C3=NN2C(C)=O)CC1` (relative stereo) [Compound 4-1, cis-2-acetyl-3-[3-(4-acetylpiperazin-1-yl)propyl]-8-fluoro-3-phenyl-2,3,3a,4-tetrahydrochromeno[4,3-c]pyrazole], at most 30 µM. For the compound `CC(=O)N1CCN(CCC[C@@]2(c3ccccc3)[C@@H]3COc4ccc(F)cc4C3=NN2C(C)=O)CC1` (single isomer, unassigned) [Compound 5-5], the IC50 is at most 30 µM. Under “assay not named”, the “activity of resolved enantiomer (active / inactive)” value (from here on “activity … (active / inactive)”) was “active”. For `CC(=O)N1CCN(CCC[C@@]2(c3ccccc3)[C@H]3COc4ccc(F)cc4C3=NN2C(C)=O)CC1` (single isomer, unassigned) [Compound 5-6], in that order: at most 30 µM and “active”. As to `CC(=O)N1N=C2c3cc(F)ccc3OCC2C1c1ccccc1` (centres unmarked) [Compound 1-2, 2-acetyl-8-fluoro-3-phenyl-2,3,3a,4-tetrahydrochromeno[4,3-c]pyrazole], the concentration for half-maximal inhibition (IC50) was at most 30 µM. In addition, for the setting “the cis diastereomer (eluted second) compared with the other, assay not named”, the “relative inhibitory activity of the diastereomers” value is given as “higher inhibitory activity”. `CC(=O)N1N=C2c3cc(F)ccc3OC[C@H]2[C@H]1c1ccccc1` [Compound 1-3, (3S,3aS)-2-acetyl-8-fluoro-3-phenyl-2,3,3a,4-tetrahydrochromeno[4,3-c]pyrazole] gave a concentration for half-maximal inhibition (IC50) of at most 30 µM. The “activity … (active / inactive)” value (assay not named) was “active”.

Take `O=C(N1N=C2c3cc(F)ccc3OCC2C1(CCCO)c1ccccc1)C(F)(F)F` (centres unmarked) [Compound 3-7, 3-[8-fluoro-3-phenyl-2-(trifluoroacetyl)-2,3,3a,4-tetrahydrochromeno[4,3-c]pyrazol-3-yl]propan-1-ol]: the concentration for half-maximal inhibition (IC50) is at most 30 µM.

In turn, `CC(=O)N1CCN(CCCC2(c3ccccc3)C3COc4ccc(F)cc4C3=NN2C(=O)C(F)(F)F)CC1` (centres unmarked) [Compound 3-8, 3-[3-(4-acetylpiperazin-1-yl)propyl]-8-fluoro-3-phenyl-2-(trifluoroacetyl)-2,3,3a,4-tetrahydrochromeno[4,3-c]pyrazole] gave a 50% inhibitory concentration (IC50) of at most 30 µM. On to `CC(=O)N1CCN(CCC[C@@]2(c3ccccc3)[C@@H]3COc4ccc(F)cc4C3=NN2C(=O)C(F)(F)F)CC1` [Compound 3-9, (3S,3aS)-3-[3-(4-acetylpiperazin-1-yl)propyl]-8-fluoro-3-phenyl-2-(trifluoroacetyl)-2,3,3a,4-tetrahydrochromeno[4,3-c]pyrazole], for which the IC50 is at most 30 µM. For the same compound, the “activity … (active / inactive)” value (assay not named) was “active”. Turning to `CN(C)CCCC1(c2ccccc2)C2COc3ccc(F)cc3C2=NN1C(=O)C(F)(F)F` (centres unmarked) [Compound 3-10, {3-[8-fluoro-3-phenyl-2-(trifluoroacetyl)-2,3,3a,4-tetrahydrochromeno[4,3-c]pyrazol-3-yl]propyl}dimethylamine], the IC50 is at most 30 µM. Compound `O=C(N1N=C2c3cc(F)ccc3OCC2C1(CCCN1CCOCC1)c1ccccc1)C(F)(F)F` (centres unmarked) [Compound 3-11, 8-fluoro-3-(3-morpholin-4-ylpropyl)-3-phenyl-2-(trifluoroacetyl)-2,3,3a,4-tetrahydrochromeno[4,3-c]pyrazole] displayed an IC50 of at most 30 µM.

The values are drawn from patent US7595337B2, “Mitotic kinesin inhibitors” (Merck & Co. Inc., priority 2005, dated 2009).
